Earlier results, collected in US6362007B1, “Methylated, SMD homologous peptides, reactive with the antibodies from sera of living beings affected with systemic lupus erythematosus” (Innogenetics N.V., priority 1997, dated 2002).

Tested on: antibodies in SmD positive sera
Settings: James et al. 1994; synthetic octapeptides of SmD1

Row | Substance | SmD positive sera (precipitin positive) reactive
1 | amino acid 82-90: additional SmD1 epitope in the region of amino acid 82-90 (James et al. 1994) (DVEPKVKSK; UniProt P62314 82-90, looked up, fragment) | 7 of 9
2 | octapeptides 92-112: SmD1 sequence spanning synthetic octapeptides 92-112 (James et al. 1994) (REAVAGRGRGRGRGRGRGRGR; UniProt P62314 92-112, looked up, fragment) | 8 of 9
